Counter-ions that a name gives are not always drawn.
Experiments:
[1] = test system: adult male mongrel dog (gastric fundus); experiment: Barostat test in dog; format: in vivo; details: for Volume change of Air-bag / Activity of alleviating impaired gastric accommodation (in words): i.v.; for Volume change of Air-bag: 5 minutes after liquid test meal, mean air-bag volume after vs before agent, mean ± standard error; for Volume increase of air-bag, ΔmL: method of Example 1, N=1; for Activity of alleviating impaired gastric accommodation (in words): barostat test in dog
Method: A gastric fistula (KN-365, D-14-C from Natsume Seisakusyo Co., Ltd.) was installed permanently in the center of stomach anterior wall of an adult male mongrel dog, and was used for air-bag insertion.
The fistula-installed dog was abstained from food for not shorter than 18 hours, followed by opening the gastric fistula and washing inside stomach by infusion of saline into stomach, before starting experiment. This procedure was repeated 2 to 3 times as appropriate. The air-bag (maximal volume: about 750 mL) fabricated using a commercially available polyethylene bag was inserted into stomach through gastric fistula and fixed using a silicone plug, followed by connection to barostat instrument and starting measurement under nonrestraint condition. Volume change of the air-bag was recorded on both a recorder and a computer.
After insertion of the air-bag into stomach, the bag was once infused with air up to 500 mL, followed by immediate and complete air evacuation, and starting recording by adjusting initial inner pressure of the air-bag to be 6±2 mmHg. After stabilization for not shorter than 15 minutes, 50 mL of a liquid test meal (12.5 kcal, Besvion^RT from Fujisawa Pharmaceutical Co., Ltd.) dissolved in warm water (30 to 40° C.) was […] administered into stomach. Five minutes after administration of the test meal, a solvent and test agents were administrated intravenously. Mean air-bag volumes (mL) for each 5 minutes before administration of the test meal, along with before and after administration of the test agents were calculated using a computer analyzing system to compare differences in mean air-bag volumes (mL) before and after administration of the test agents.

[2] = known side effect; cited from earlier work
[3] = test system: patient with functional dyspepsia (stomach); experiment: Barostat test in human; format: in vivo
Method: A patient with functional dyspepsia, based on Rome II standard, was fasted overnight (for not shorter than 12 hours). Oral administration of 300 mg of a compound a, hydrochloride, and placebo has been conducted by a responsive doctor of clinical trial. Thirty minutes later, a polyvinyl adhesive plastic bag with dual ducts (1100 mL, maximal diameter: 17 cm, from Meditronic-Synetics Medical Ltd., Enfield, UK) was folded up to a small piece and introduced into stomach through mouth or nose, and the ducts were fixed on chin by an adhesive tape. The location of the bug in fundus of stomach was confirmed by radioscopy.
The polyvinyl tubing was connected to a computer controlled volume-replacement pressure regulator. This regulator can simultaneously monitor pressure and volume with sampling rate of 8 times per second, and also can load volume ramps and pressurizing steps with various rates. Trial subjects were kept in recumbent position and predetermined volume of air (300 mL) was infused for 2 minutes to expand the bug in stomach, and again the air was evacuated completely. After stabilization for 10 minutes, the trial subjects were allowed to keep relaxed by slightly skewing knees on a bed.
After 30 minutes of adaptation period, minimum invasive gastric dilatation pressure (MDP), that is, the minimum pressure to give not less than 30 mL of the bag inner volume, was measured by increasing inner pressure by 1 mmHg per minute. This pressure (MDP) […] equilibrates intraabdominal pressure. Then, pressure was increased from the MDP stepwisely with isobaric expansions by each 2 mmHg. At each pressure increase step, corresponding inner volume of stomach was recorded, and kept for 2 minutes. At the end of each expansion step, patients were asked to express feeling of stimulation at upper abdomen by scores from 0 to 6 with verbal explanation. The expansion procedure was terminated when inner volume of the bag reached to 1000 mL or the patient complained discomfort or soreness (score: 5 or 6).
Further, after 30 minutes of adaptation period, the pressure level was adjusted to the MDP+2 mmHg, and kept for 90 minutes. Thirty minutes later, a mixed liquid diet (200 mL, 300 kcal, protein 13%, carbohydrate 39%, Nutridrink™, Nutricia) was given by oral ingestion, followed by measurement of stomach tension over further 60 minutes.
Average inner volume of the balloon for each 2 minutes expansion period was obtained from the recorded value. […]
To evaluate stomach tension before and after meal, average volume of the balloon was measured continuously at every 5 minutes. The maximum relaxation value was obtained as difference between average volume before meal and the maximum volume after meal among average volumes measured at every 5 minutes after meal.

For `COc1cc(N)c(Cl)cc1C(=O)NC1CCN(CCCOc2ccc(F)cc2)CC1OC` (stereo not drawn) [Cisapride, reference compound], the “Volume change of Air-bag” value ([1]; 0.3 mg/kg) is listed as 3.6 ± 25.0 mL and the “Extension of Q-T interval (adverse effect)” value [2] is listed as “serious side effect such as extension of Q-T interval”.
In the case of `COc1cc(O)c(C(=O)Nc2nc(C(=O)NCCN(C(C)C)C(C)C)cs2)cc1OC` [Compound a, hydrochloride, 2-[N-(4,5-dimethoxy-2-hydroxybenzoyl)amino]-4-[(2-diisopropylaminoethyl)aminocarbonyl]-1,3-thiazole], the “Volume change of Air-bag” value ([1]; 3 mg/kg) is reported as 50.8 ± 16.7 mL, the “Volume change of Air-bag” value ([1]; 3 mg/kg, listed as compound a, hydrochloride) is reported as 50.8 mL and the “Expansion effect compared with cisapride” value ([1]; compound a 3 mg/kg i.v. vs cisapride 0.3 mg/kg i.v.) is reported as “surpassed that of cisapride”. The “Effect on maximum relaxation value of stomach after meal (in words)” value ([3]; 300 mg, p.o.) was “significantly increased”, the “Change in max. relaxation volume” value ([3]; 300 mg, p.o., N=17, after meal) was 24.3 ± 172.3 mL and the “Max. relaxation volume after treatment” value ([3]; 300 mg, p.o., N=17, after meal) was 313.4 mL. The “Max. relaxation volume before treatment” value ([3]; baseline of the 300 mg p.o. group, N=17, after meal) was 295.5 mL.
For `COc1cc(Cl)c(C(=O)Nc2nc(C(=O)NCCN(C(C)C)C(C)C)cs2)cc1OC` [Compound b, Maleate, 2-[N-(2-chloro-4,5-dimethoxybenzoyl)-amino]-4-[(2-diisopropylaminoethyl)aminocarbonyl]-1,3-thiazole], the “Volume increase of air-bag, ΔmL” value ([1]; 1 mg/kg i.v.) was 29.7 mL and the “Activity of alleviating impaired gastric accommodation (in words)” value (shortened to “Activity”) [1] was “excellent activity of alleviating impaired gastric accommodation”.
For `COc1ccc(C(=O)Nc2nc(C(=O)NCCN(C(C)C)C(C)C)cs2)cc1OC` [Compound c, hydrochloride, 2-[N-(4,5-dimethoxy-benzoyl)amino]-4-[(2-diisopropylaminoethyl)amino-carbonyl]-1,3-thiazole], the “Volume increase of air-bag, ΔmL” value ([1]; 1 mg/kg i.v.) was 58.2 mL and the “Activity” value [1] was “excellent activity of alleviating impaired gastric accommodation”.
With `COc1cc(O)c(C(=O)Nc2cc(C(=O)NCCN(C(C)C)C(C)C)co2)cc1OC.O=C(O)/C=C\C(=O)O` [Compound d, Maleate, 2-[N-(4,5-dimethoxy-2-hydroxybenzoyl)amino]-4-[(2-diisopropyl-aminoethyl)aminocarbonyl]furan] the “Volume increase of air-bag, ΔmL” value ([1]; 3 mg/kg i.v.) was 11.4 mL and the “Activity” value [1] was “excellent activity of alleviating impaired gastric accommodation”.

Source: patent US20200375954A1, “THERAPEUTIC AGENT FOR FOOD COMPETENCE DISORDER IN STOMACH” (ZERIA PHARMACEUTICAL CO., LTD., priority 2002, published 2020)
